These are literature values, as cited in patent publication US20230091170A1, “ENRICHMENT OF ANTIGEN-SPECIFIC ANTIBODIES FOR ANALYTIC AND THERAPEUTIC USE” (priority 2020, published 2023).

Where two headings read alike, the source gives them in different places. Some results are limits rather than exact numbers.

For the compound `O=C(O)CCCC[C@@H]1SC[C@@H]2NC(=O)N[C@@H]21` [Biotin], the “Serum concentration of biotin” value runs as follows: (after a single dose of 300 mg biotin) “up to 1160 ng/mL”; (within the first hour after ingestion, supplements of 20 mg biotin per day) “up to 355 ng/mL”. Moreover, for the setting “derived from the diet and normal metabolism”, the “Normal circulating concentrations of biotin” value is on record as below 1.2 ng/mL.
